14 compounds from article PMC7822874, “Chemoprotective antimalarials identified through quantitative high-throughput screening of Plasmodium blood and liver stage parasites” (Scientific Reports, 2021) can be followed below.

For one test, the system named is HepG2-A16-CD81EGFP cells. The note with it: averaged response (percent).
In test [1] the test system is P. berghei-ANKA-GFP-LucCON liver stage parasites in HepG2-A16-CD81EGFP cells. Put plainly: P. berghei liver stage Pb-Luc assay, Method 1 (UCSD, 1536-well). It is filed as cell-based, Plasmodium berghei. The conditions noted are these: P. berghei liver stage, averaged response (percent); for Average P. berghei 1 µM response (%): the header list (r8) defines it as the 1 µM dose.

Test [2] concerns P. falciparum Dd2 (clone B2) asexual blood stage parasites. Briefly: P. falciparum Dd2 asexual blood stage SYBR Green-I 72 h proliferation assay (qHTS). It is filed as cell-based, Plasmodium falciparum. The conditions noted are these: averaged P. falciparum asexual blood stage potency, log10 of AC50 in M. For orientation: qHTS replaces the single test concentration by a dilution series.

The mark [3] stands for this setting: HepG2, the header list (r10) describes it as the 1 µM dose.

SMILES strings stand for the structures. Like-named read-outs stand apart in the source and are kept apart here.

Take `CCOC(=O)c1c[nH]c2c(C)cc(C)cc2c1=O` [MLS000530578]: in the test with HepG2-A16-CD81EGFP cells (HepG2, 3 µM dose), the “Average HepG2 3 µM response( %)” value stood at 102%. In addition, in the test with HepG2-A16-CD81EGFP cells (setting [3]), the “Average HepG2 3 µM response( %)” value amounted to 102%. Moreover, in test [1], the “Average P. berghei 3 µM response( %)” value is given as 9.48% and the “Average P. berghei 1 µM response (%)” value is 49%. The “Pf ABS Log AC50 (M)” value in test [2] was -5.437 M.
Take `COc1ccc(C(CCN2CCCCC2)c2c(O)cc(OC)cc2OC)cc1` (stereo not shown) [MLS000879486]: the “Average HepG2 3 µM response( %)” value in the test on HepG2-A16-CD81EGFP cells (HepG2, 3 µM dose) was 88%. Further, the “Average HepG2 3 µM response( %)” value in the test with HepG2-A16-CD81EGFP cells (setting [3]) is on record as 92%. In test [1], the “Average P. berghei 3 µM response( %)” value was 88% and the “Average P. berghei 1 µM response (%)” value is reported as 105%. Besides, in test [2], the “Pf ABS Log AC50 (M)” value is -5.962 M.
`Cc1nn(-c2nnc(NCc3ccccc3)nn2)c(C)c1Br` [MLS000704225]: the “Average HepG2 3 µM response( %)” value in the test on HepG2-A16-CD81EGFP cells (HepG2, 3 µM dose) came out at 93%; in the test with HepG2-A16-CD81EGFP cells (setting [3]), 102%. The “Average P. berghei 3 µM response( %)” value in test [1] turned out to be 57%. For the same compound, in test [1], the “Average P. berghei 1 µM response (%)” value was 106%. Moreover, in test [2], the “Pf ABS Log AC50 (M)” value was -6.187 M.
In the case of `CCCCn1c2c(c(=N)c3c1CCC3)CCC2` [MLS000080126], in the test with HepG2-A16-CD81EGFP cells (HepG2, 3 µM dose), the “Average HepG2 3 µM response( %)” value is given as 80%. Also, the “Average HepG2 3 µM response( %)” value in the test with HepG2-A16-CD81EGFP cells (setting [3]) was determined as 110%. In test [1], the “Average P. berghei 3 µM response( %)” value was 4% and the “Average P. berghei 1 µM response (%)” value came to 41%. Moreover, the “Pf ABS Log AC50 (M)” value in test [2] is given as -5.587 M.
Taken in the same sequence, the figures for `COc1ccccc1NC(=O)CN1CCN(C(=O)c2ccco2)CC1` [MLS000122729] were 102%, 102%, 65%, 115% and -5.462 M.
`Cc1cc(Oc2c(C(F)(F)F)oc3c(CN4CCC(C)CC4)c(O)ccc3c2=O)cc(C)c1Cl` [NCGC00101140]: the “Average HepG2 3 µM response( %)” value in the test on HepG2-A16-CD81EGFP cells (HepG2, 3 µM dose) came out at 111%. Besides, the “Average HepG2 3 µM response( %)” value in the test with HepG2-A16-CD81EGFP cells (setting [3]) is reported as 110%. In addition, in test [1], the “Average P. berghei 3 µM response( %)” value is 71% and the “Average P. berghei 1 µM response (%)” value is 85%. The “Pf ABS Log AC50 (M)” value in test [2] is recorded as -6.125 M.
For `O=C1NCc2ccccc2CC12CCCN(Cc1ccccc1)C2` (stereo not shown) [NCGC00377595], in that order: 104%, 103%, 106%, 116% and -4.980 M.
On to `CCOc1ccccc1CN1CCC2(CCN(CCC(C)C)CC2)Oc2ccccc21` [NCGC00478188], for which the “Average HepG2 3 µM response( %)” value is listed as 105% in the test with HepG2-A16-CD81EGFP cells (HepG2, 3 µM dose) and 100% in the test with HepG2-A16-CD81EGFP cells (setting [3]). For the same compound, the “Average P. berghei 3 µM response( %)” value in test [1] came out at 48%. The “Average P. berghei 1 µM response (%)” value in test [1] is given as 106%. The “Pf ABS Log AC50 (M)” value in test [2] is on record as -5.475 M.
As for `CCc1cccc(-n2c(=O)c3cccnc3n2CC(=O)Nc2ccc(F)c(C)c2)c1` [NCGC00128424], the “Average HepG2 3 µM response( %)” value in the test with HepG2-A16-CD81EGFP cells (HepG2, 3 µM dose) is given as 103%. Further, the “Average HepG2 3 µM response( %)” value with HepG2-A16-CD81EGFP cells (setting [3]) was found to be 107%. Moreover, in test [1], the “Average P. berghei 3 µM response( %)” value turned out to be 91% and the “Average P. berghei 1 µM response (%)” value was found to be 110%. The “Pf ABS Log AC50 (M)” value in test [2] was -5.575 M.
For `CCN(C(=O)CSc1nc(-c2ccc(C(C)C)cc2)no1)c1ccccc1` [NCGC00127904], in that order: 105%, 102%, 98%, 117% and -6.025 M.
On to `N=c1n(N)c2ccccc2n1CC(=O)c1ccc(Br)cc1` [MLS001183984], for which the “Average HepG2 3 µM response( %)” value in the test with HepG2-A16-CD81EGFP cells (HepG2, 3 µM dose) was determined as 102%. The “Average HepG2 3 µM response( %)” value in the test on HepG2-A16-CD81EGFP cells (setting [3]) was 102%. For the same compound, in test [1], the “Average P. berghei 3 µM response( %)” value came out at 137% and the “Average P. berghei 1 µM response (%)” value was 110%. In addition, the “Pf ABS Log AC50 (M)” value in test [2] is -5.837 M.
As to `CN(CC(=O)Nc1cccc(F)c1)C(=O)c1ccc(-c2cccc(C(F)(F)F)c2)o1` [MLS001139679], the “Average HepG2 3 µM response( %)” value in the test on HepG2-A16-CD81EGFP cells (HepG2, 3 µM dose) is reported as 100%. The “Average HepG2 3 µM response( %)” value with HepG2-A16-CD81EGFP cells (setting [3]) is given as 103%. In test [1], the “Average P. berghei 3 µM response( %)” value came out at 89% and the “Average P. berghei 1 µM response (%)” value stood at 141%. For the same compound, the “Pf ABS Log AC50 (M)” value in test [2] is reported as -6.362 M.
On to `CC1CCN(C(=O)CSc2nc(-c3ccc(C(C)C)cc3)no2)CC1` [NCGC00127906], for which the “Average HepG2 3 µM response( %)” value in the test with HepG2-A16-CD81EGFP cells (HepG2, 3 µM dose) came out at 105%. Moreover, the “Average HepG2 3 µM response( %)” value in the test on HepG2-A16-CD81EGFP cells (setting [3]) was 105%. For the same compound, in test [1], the “Average P. berghei 3 µM response( %)” value was found to be 103% and the “Average P. berghei 1 µM response (%)” value was found to be 130%. Further, the “Pf ABS Log AC50 (M)” value in test [2] is reported as -5.925 M.
As to `CCOc1ccc(Nc2nc(NCC3CCCO3)c3ccccc3n2)cc1` (stereo not shown) [MLS000724397], the “Average HepG2 3 µM response( %)” value in the test with HepG2-A16-CD81EGFP cells (HepG2, 3 µM dose) was 84%; with HepG2-A16-CD81EGFP cells (setting [3]), 102%. Also, in test [1], the “Average P. berghei 3 µM response( %)” value was 10%. The “Average P. berghei 1 µM response (%)” value in test [1] is 59%. The “Pf ABS Log AC50 (M)” value in test [2] is reported as -5.737 M.
